How the values were obtained:
Format in all cases: in vivo
Kochia (Kochia scoparia) [1] = assay: Test A preemergence; conditions: Bassia scoparia, pre-emergence, 240 h, Preemergence; for pest or weed control at 31 g/ha: 31 g ai/ha, 0 to 100 scale where 0 is no effect and 100 is complete control, read-out: Kochia plant response rating; for pest or weed control at 125 g/ha: 125 g ai/ha, 0 to 100 scale (0 no effect, 100 complete control), read-out: Plant response rating, Kochia
In short: (§1)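 Treatment is preemergence as a directed soil spray after planting, or postemergence at the one- to two-leaf stage, with test chemical in a non-phytotoxic solvent mixture plus surfactant. Plants stay in the greenhouse about 10 d before visual injury scoring on a 0 to 100 scale versus untreated controls.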

[2] = system: barnyardgrass (Echinochloa crus-galli); assay: Test A preemergence; conditions: Echinochloa crus-galli, pre-emergence, 240 h, Preemergence; for pest or weed control at 31 g/ha: 31 g ai/ha, 0 to 100 scale where 0 is no effect and 100 is complete control, read-out: Barnyardgrass plant response rating; for pest or weed control at 125 g/ha: 125 g ai/ha, 0 to 100 scale (0 no effect, 100 complete control), read-out: Plant response rating, Barnyardgrass
In short: as §1

[3] = system: giant foxtail (Setaria faberii); assay: Test A preemergence; conditions: Setaria faberi, pre-emergence, 240 h, Preemergence; for pest or weed control at 31 g/ha: 31 g ai/ha, 0 to 100 scale where 0 is no effect and 100 is complete control, read-out: Foxtail, Giant plant response rating; for pest or weed control at 125 g/ha: 125 g ai/ha, 0 to 100 scale (0 no effect, 100 complete control), read-out: Plant response rating, Foxtail, Giant
In short: as §1

[4] = system: pigweed (Amaranthus retroflexus); assay: Test A preemergence; conditions: Amaranthus retroflexus, pre-emergence, 240 h, Preemergence; for pest or weed control at 31 g/ha: 31 g ai/ha, 0 to 100 scale where 0 is no effect and 100 is complete control, read-out: Pigweed plant response rating; for pest or weed control at 125 g/ha: 125 g ai/ha, 0 to 100 scale (0 no effect, 100 complete control), read-out: Plant response rating, Pigweed
[5] = system: ragweed (common ragweed, Ambrosia elatior); assay: Test A preemergence; conditions: Ambrosia artemisiifolia, pre-emergence, 240 h, Preemergence; for pest or weed control at 31 g/ha: 31 g ai/ha, 0 to 100 scale where 0 is no effect and 100 is complete control, read-out: Ragweed plant response rating; for pest or weed control at 125 g/ha: 125 g ai/ha, 0 to 100 scale (0 no effect, 100 complete control), read-out: Plant response rating, Ragweed
In short: as §1

[6] = system: ryegrass, Italian (Italian ryegrass, Lolium multiflorum); assay: Test A preemergence; conditions: Lolium multiflorum, pre-emergence, 240 h, Preemergence; for pest or weed control at 31 g/ha: 31 g ai/ha, 0 to 100 scale where 0 is no effect and 100 is complete control, read-out: Ryegrass, Italian plant response rating; for pest or weed control at 125 g/ha: 125 g ai/ha, 0 to 100 scale (0 no effect, 100 complete control), read-out: Plant response rating, Ryegrass, Italian
In short: as §1

[7] = system: Galium (catchweed bedstraw, Galium aparine); assay: Test A postemergence; conditions: Galium, post-emergence, 240 h, Postemergence; for pest or weed control at 31 g/ha: 31 g ai/ha, 0 is no effect, 100 is complete control, read-out: Galium plant response rating (0 to 100 scale); for pest or weed control at 125 g/ha: 125 g ai/ha, visual injury after approx. 10 d, 0 to 100 scale, 0 no effect, 100 complete control, read-out: Plant response rating, Galium
In short: as §1

Kochia (Kochia scoparia) [8] = assay: Test A postemergence; conditions: Bassia scoparia, post-emergence, 240 h, Postemergence; for pest or weed control at 31 g/ha: 31 g ai/ha, 0 is no effect, 100 is complete control, read-out: Kochia plant response rating (0 to 100 scale); for pest or weed control at 125 g/ha: 125 g ai/ha, visual injury after approx. 10 d, 0 to 100 scale, 0 no effect, 100 complete control, read-out: Plant response rating, Kochia
In short: as §1

[9] = system: barnyardgrass (Echinochloa crus-galli); assay: Test A postemergence; conditions: Echinochloa crus-galli, post-emergence, 240 h, Postemergence; for pest or weed control at 31 g/ha: 31 g ai/ha, 0 is no effect, 100 is complete control, read-out: Barnyardgrass plant response rating (0 to 100 scale); for pest or weed control at 125 g/ha: 125 g ai/ha, visual injury after approx. 10 d, 0 to 100 scale, 0 no effect, 100 complete control, read-out: Plant response rating, Barnyardgrass
In short: as §1

[10] = system: blackgrass (Alopecurus myosuroides); assay: Test A postemergence; conditions: Alopecurus myosuroides, post-emergence, 240 h, Postemergence; for pest or weed control at 31 g/ha: 31 g ai/ha, 0 is no effect, 100 is complete control, read-out: Blackgrass plant response rating (0 to 100 scale); for pest or weed control at 125 g/ha: 125 g ai/ha, visual injury after approx. 10 d, 0 to 100 scale, 0 no effect, 100 complete control, read-out: Plant response rating, Blackgrass
In short: as §1

corn (Zea mays) = assay: Test A postemergence; conditions: Zea mays, post-emergence, 240 h, Postemergence; for plant injury at 31 g/ha: 31 g ai/ha, 0 is no effect, 100 is complete control, read-out: Corn plant response rating (0 to 100 scale); for Corn plant response rating (crop injury, 0 = no effect, 100 = complete kill) at 125 g/ha: 125 g ai/ha, visual injury after approx. 10 d, 0 to 100 scale, 100 complete control
In short: as §1

[11] = system: giant foxtail (Setaria faberii); assay: Test A postemergence; conditions: Setaria faberi, post-emergence, 240 h, Postemergence; for pest or weed control at 31 g/ha: 31 g ai/ha, 0 is no effect, 100 is complete control, read-out: Foxtail, Giant plant response rating (0 to 100 scale); for pest or weed control at 125 g/ha: 125 g ai/ha, visual injury after approx. 10 d, 0 to 100 scale, 0 no effect, 100 complete control, read-out: Plant response rating, Foxtail, Giant
In short: as §1

[12] = system: pigweed (Amaranthus retroflexus); assay: Test A postemergence; conditions: Amaranthus retroflexus, post-emergence, 240 h, Postemergence; for pest or weed control at 31 g/ha: 31 g ai/ha, 0 is no effect, 100 is complete control, read-out: Pigweed plant response rating (0 to 100 scale); for pest or weed control at 125 g/ha: 125 g ai/ha, visual injury after approx. 10 d, 0 to 100 scale, 0 no effect, 100 complete control, read-out: Plant response rating, Pigweed
In short: as §1

[13] = system: ragweed (common ragweed, Ambrosia elatior); assay: Test A postemergence; conditions: Ambrosia artemisiifolia, post-emergence, 240 h, Postemergence; for pest or weed control at 31 g/ha: 31 g ai/ha, 0 is no effect, 100 is complete control, read-out: Ragweed plant response rating (0 to 100 scale); for pest or weed control at 125 g/ha: 125 g ai/ha, visual injury after approx. 10 d, 0 to 100 scale, 0 no effect, 100 complete control, read-out: Plant response rating, Ragweed
In short: as §1

[14] = system: ryegrass, Italian (Italian ryegrass, Lolium multiflorum); assay: Test A postemergence; conditions: Lolium multiflorum, post-emergence, 240 h, Postemergence; for pest or weed control at 31 g/ha: 31 g ai/ha, 0 is no effect, 100 is complete control, read-out: Ryegrass, Italian plant response rating (0 to 100 scale); for pest or weed control at 125 g/ha: 125 g ai/ha, visual injury after approx. 10 d, 0 to 100 scale, 0 no effect, 100 complete control, read-out: Plant response rating, Ryegrass, Italian
In short: as §1

[15] = system: wheat (Triticum aestivum); assay: Test A postemergence; conditions: Triticum aestivum, post-emergence, 240 h, Postemergence; for plant injury at 31 g/ha: 31 g ai/ha, 0 is no effect, 100 is complete control, read-out: Wheat plant response rating (0 to 100 scale); for plant injury at 125 g/ha: 125 g ai/ha, visual injury after approx. 10 d, 0 to 100 scale, 0 no effect, 100 complete control, read-out: Plant response rating, Wheat
In short: as §1

[16] = system: barnyardgrass (Echinochloa crus-galli); assay: Test B flooded paddy test; conditions: Echinochloa crus-galli, 360 h, Flood, 250 g ai/ha; visually evaluated after 13 to 15 d; read-out: Plant response rating, Barnyardgrass (0 to 100 scale where 0 is no effect and 100 is complete control)
In short: (§2)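 Response scored visually against untreated controls, 0 = no effect and 100 = complete control, 13–15 d after treatment in the greenhouse. Compounds added to paddy water held 3 cm above soil surface. Treatment given at 2-leaf stage.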

[17] = system: ducksalad (Heteranthera limosa); assay: Test B flooded paddy test; conditions: Heteranthera limosa, 360 h, Flood, 250 g ai/ha; visually evaluated after 13 to 15 d; read-out: Plant response rating, Ducksalad (0 to 100 scale where 0 is no effect and 100 is complete control)
In short: as §2

rice (Oryra sativa) = assay: Test B flooded paddy test; conditions: Oryza sativa, 360 h, Flood, 250 g ai/ha; visually evaluated after 13 to 15 d; read-out: Plant response rating, Rice (0 to 100 scale where 0 is no effect and 100 is complete control)
In short: as §2

[18] = system: sedge, umbrella (small-flower umbrella sedge, Cyperus difformis); assay: Test B flooded paddy test; conditions: Cyperus difformis, 360 h, Flood, 250 g ai/ha; visually evaluated after 13 to 15 d; read-out: Plant response rating, Sedge, Umbrella (0 to 100 scale where 0 is no effect and 100 is complete control)
In short: as §2

| SMILES | pest or weed control at 31 g/ha (Kochia (Kochia scoparia) [1]) [%] | pest or weed control at 125 g/ha (Kochia (Kochia scoparia) [1]) [%] | pest or weed control at 31 g/ha [2] [%] | pest or weed control at 125 g/ha [2] [%] | pest or weed control at 31 g/ha [3] [%] | pest or weed control at 125 g/ha [3] [%] | pest or weed control at 31 g/ha [4] [%] | pest or weed control at 125 g/ha [4] [%] | pest or weed control at 31 g/ha [5] [%] | pest or weed control at 125 g/ha [5] [%] | pest or weed control at 31 g/ha [6] [%] | pest or weed control at 125 g/ha [6] [%] | pest or weed control at 31 g/ha [7] [%] | pest or weed control at 125 g/ha [7] [%] | pest or weed control at 31 g/ha (Kochia (Kochia scoparia) [8]) [%] | pest or weed control at 125 g/ha (Kochia (Kochia scoparia) [8]) [%] | pest or weed control at 31 g/ha [9] [%] | pest or weed control at 125 g/ha [9] [%] | pest or weed control at 31 g/ha [10] [%] | pest or weed control at 125 g/ha [10] [%] | also measured |
| --- | --- | --- | --- | --- | --- | --- | --- | --- | --- | --- | --- | --- | --- | --- | --- | --- | --- | --- | --- | --- | --- |
| CN1C[C@H](c2ccc(C(F)(F)F)cc2)[C@@H](C(=O)Nc2cccnc2F)C1=O [Compound 1396] | 30 | 70 | 90 | 90 | 90 | 90 | 70 | 90 | 30 | 60 | 0 | 40 | 60 | 70 | 60 | 70 | 70 | 80 | 0 | 50 | plant injury at 31 g/ha (corn (Zea mays)): 20%; Corn plant response rating (crop injury, 0 = no effect, 100 = complete kill) at 125 g/ha (corn (Zea mays)): 60%; pest or weed control at 31 g/ha [11]: 80%; pest or weed control at 125 g/ha [11]: 80%; pest or weed control at 31 g/ha [12]: 30%; pest or weed control at 125 g/ha [12]: 70%; pest or weed control at 31 g/ha [13]: 0%; pest or weed control at 125 g/ha [13]: 50%; pest or weed control at 31 g/ha [14]: 20%; pest or weed control at 125 g/ha [14]: 40%; plant injury at 31 g/ha [15]: 0%; plant injury at 125 g/ha [15]: 70%; pest or weed control at 250 g/ha [16]: 80%; pest or weed control at 250 g/ha [17]: 100%; pest or weed control at 250 g/ha (rice (Oryra sativa)): 25%; pest or weed control at 250 g/ha [18]: 0% |
| CN1C[C@H](c2ccc(Cl)cc2)[C@@H](C(=O)Nc2cccc(F)n2)C1=O [Compound 1399] | 20 | 70 | 80 | 90 | 90 | 90 | 30 | 30 | 50 | 60 | 0 | 40 | 40 | 60 | 50 | 70 | 90 | 90 | 20 | 20 | plant injury at 31 g/ha (corn (Zea mays)): 0%; Corn plant response rating (crop injury, 0 = no effect, 100 = complete kill) at 125 g/ha (corn (Zea mays)): 0%; pest or weed control at 31 g/ha [11]: 70%; pest or weed control at 125 g/ha [11]: 90%; pest or weed control at 31 g/ha [12]: 0%; pest or weed control at 125 g/ha [12]: 40%; pest or weed control at 31 g/ha [13]: 0%; pest or weed control at 125 g/ha [13]: 40%; pest or weed control at 31 g/ha [14]: 20%; pest or weed control at 125 g/ha [14]: 20%; plant injury at 31 g/ha [15]: 0%; plant injury at 125 g/ha [15]: 20%; pest or weed control at 250 g/ha [16]: 85%; pest or weed control at 250 g/ha [17]: 100%; pest or weed control at 250 g/ha (rice (Oryra sativa)): 15%; pest or weed control at 250 g/ha [18]: 0% |
